The values below come from ChEMBL document CHEMBL5506066, “Potency-Enhanced Peptidomimetic VHL Ligands with Improved Oral Bioavailability” (J Med Chem, 2024).

In experiment [1] the target is T1, von Hippel-Lindau disease tumor suppressor (Homo sapiens, UniProt P40337).
Experiment [2] concerns the target T1, von Hippel-Lindau disease tumor suppressor. Nature of the experiment: biochemical.
Description: Binding affinity to VHL (unknown origin)-NanoLuc fusion protein expressed in HEK293 cells assessed as apparent dissociation constant incubated for 30 mins in presence of digitonin by NanoBRET assay

T1 sequence (P40337 whole entry): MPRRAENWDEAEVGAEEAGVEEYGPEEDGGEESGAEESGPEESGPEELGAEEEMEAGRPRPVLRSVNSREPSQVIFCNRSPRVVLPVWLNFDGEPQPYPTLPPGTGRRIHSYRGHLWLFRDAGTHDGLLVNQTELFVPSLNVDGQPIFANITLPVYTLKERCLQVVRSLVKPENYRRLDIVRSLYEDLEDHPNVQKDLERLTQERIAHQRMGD

By Kd is commonly meant the equilibrium constant for the complex coming apart. Low values mean tighter binding, high ones weaker binding. As to `CSCC[C@H](NC(C)=O)C(=O)N1C[C@H](O)C[C@H]1C(=O)N[C@H](Cc1ccc(-c2ccccc2)cc1)C(N)=O`, the Kd came out at 26.6 µM in experiment [1] and 8.9 µM in experiment [2].

With `CC(=O)NC(C(=O)N1C[C@H](O)C[C@H]1C(=O)N[C@H](Cc1ccc(-c2ccccc2)cc1)C(N)=O)C12CC(C(F)(F)F)(C1)C2` (some centres undefined), the values for the Kd in experiment [1] and in experiment [2] were 6.6 µM and 2.4 µM, respectively.

For the molecule `CC(=O)N[C@H](C(=O)N1C[C@H](O)C[C@H]1C(=O)N[C@H](C(N)=O)c1ccc(-c2scnc2C)cc1)C(C)(C)C`, the Kd in experiment [1] is 14 µM; in experiment [2] it was 2.15 µM.

With `COc1ccc(-c2ccc(C[C@@H](NC(=O)[C@@H]3C[C@@H](O)CN3C(=O)[C@@H](NC(C)=O)C(C)(C)C)C(N)=O)cc2)cc1F`, the dissociation constant Kd was greater than 57.5 µM in experiment [1] and 21.2 µM in experiment [2].

For the molecule `CC(=O)N[C@@H](CC1CC1)C(=O)N1C[C@H](O)C[C@H]1C(=O)N[C@H](Cc1ccc(-c2ccccc2)cc1)C(N)=O`, the Kd in experiment [1] was 31.1 µM; in experiment [2], 12.9 µM.

`CC(=O)N[C@H](C(=O)N1C[C@H](O)C[C@H]1C(=O)N[C@H](Cc1ccc(-c2ccc(F)cn2)cc1)C(N)=O)C(C)(C)C`: the Kd in experiment [1] came to 6.6 µM; in experiment [2] it was 2.9 µM.

Take `CC(=O)NC1(C(=O)N2C[C@H](O)C[C@H]2C(=O)N[C@H](Cc2ccc(-c3ccccc3)cc2)C(N)=O)CCC1`: the dissociation constant (Kd) was greater than 57.5 µM in experiment [1] and greater than 51.8 µM in experiment [2].

In the case of `CC(=O)NC1(C(=O)N2C[C@H](O)C[C@H]2C(=O)N[C@H](Cc2ccc(-c3ccccc3)cc2)C(N)=O)CCCCC1`, the Kd was greater than 57.5 µM in experiment [1] and greater than 51.8 µM in experiment [2].

With `CC(=O)N[C@H](C(=O)N1C[C@H](O)C[C@H]1C(=O)N[C@H](Cc1ccc(-c2ccccc2)cc1)C(N)=O)C(C)(C)c1ccccc1`, the Kd in experiment [1] was 4.6 µM; in experiment [2] it was 3.1 µM.

With `CC(=O)NC(C)(C)C(=O)N1C[C@H](O)C[C@H]1C(=O)N[C@H](Cc1ccc(-c2ccccc2)cc1)C(N)=O`, the values for the dissociation constant (Kd) in experiment [1] and in experiment [2] were greater than 57.5 µM and greater than 51.8 µM, respectively.

Turning to `CC(=O)N[C@]1(C(=O)N2C[C@H](O)C[C@H]2C(=O)N[C@H](Cc2ccc(-c3ccccc3)cc2)C(N)=O)CC1(C)C`, the Kd is greater than 57.5 µM in experiment [1] and greater than 51.8 µM in experiment [2].

Take `CC(=O)NCC(=O)N1C[C@H](O)C[C@H]1C(=O)N[C@H](Cc1ccc(-c2ccccc2)cc1)C(N)=O`: the results for the Kd in experiment [1] and in experiment [2] were greater than 57.5 µM and greater than 51.8 µM, respectively.

For `NC(=O)[C@@H](Cc1ccc(-c2ccccc2)cc1)NC(=O)[C@@H]1C[C@@H](O)CN1C(=O)Cc1cnco1`, the Kd in experiment [1] is greater than 57.5 µM; in experiment [2], greater than 51.8 µM.

Turning to `CC(=O)NC1(C(=O)N2C[C@H](O)C[C@H]2C(=O)N[C@H](Cc2ccc(-c3ccccc3)cc2)C(N)=O)CC1`, the Kd in experiment [1] is greater than 57.5 µM; in experiment [2] it was greater than 51.8 µM.

Take `CC(=O)N1CCCC[C@H]1C(=O)N1C[C@H](O)C[C@H]1C(=O)N[C@H](Cc1ccc(-c2ccccc2)cc1)C(N)=O`: the Kd in experiment [1] is 10.5 µM; in experiment [2], 4.9 µM.

Take `NC(=O)[C@@H](Cc1ccc(-c2ccccc2)cc1)NC(=O)[C@@H]1C[C@@H](O)CN1C(=O)Cc1ccon1`: the values for the Kd in experiment [1] and in experiment [2] were greater than 57.5 µM and greater than 51.8 µM, respectively.

For the molecule `CC(=O)N[C@H](C(=O)N1C[C@H](O)C[C@H]1C(=O)N[C@H](Cc1ccc(-c2ccccc2)cc1)C(N)=O)C1CCNCC1`, the Kd in experiment [1] was greater than 57.5 µM; in experiment [2], 11.5 µM.

Turning to `CC(=O)N[C@H](C(=O)N1C[C@H](O)C[C@H]1C(=O)N[C@H](Cc1ccc(C#N)cc1)C(N)=O)C(C)(C)C`, the Kd in experiment [1] was greater than 57.5 µM; in experiment [2], 9 µM.

Take `CC(=O)N[C@H](C(=O)N1C[C@H](O)C[C@H]1C(=O)N[C@H](Cc1ccc(-c2ccccc2F)cc1)C(N)=O)C(C)(C)C`: the figures for the Kd in experiment [1] and in experiment [2] were 4.4 µM and 2.7 µM, respectively.

Take `NC(=O)[C@@H](Cc1ccc(-c2ccccc2)cc1)NC(=O)[C@@H]1C[C@@H](O)CN1C(=O)Cn1ccnn1`: the Kd is greater than 57.5 µM in experiment [1] and greater than 51.8 µM in experiment [2].

As for `CC(=O)N1CCC[C@H]1C(=O)N1C[C@H](O)C[C@H]1C(=O)N[C@H](Cc1ccc(-c2ccccc2)cc1)C(N)=O`, the dissociation constant Kd is greater than 57.5 µM in experiment [1] and 12.7 µM in experiment [2].

`CC(=O)N[C@H](C(=O)N1C[C@H](O)C[C@H]1C(=O)N[C@H](Cc1ccc(C)cc1)C(N)=O)C(C)(C)C`: the Kd was greater than 57.5 µM in experiment [1] and greater than 51.8 µM in experiment [2].

With `CC(=O)N[C@H](C(=O)N1C[C@H](O)C[C@H]1C(=O)N[C@H](Cc1ccc(-c2ccccc2Cl)cc1)C(N)=O)C(C)(C)C`, the Kd in experiment [1] was determined as 5.5 µM; in experiment [2], 1.8 µM.

For the molecule `CC(=O)N[C@@H](Cc1cscn1)C(=O)N1C[C@H](O)C[C@H]1C(=O)N[C@H](Cc1ccc(-c2ccccc2)cc1)C(N)=O`, the Kd was greater than 57.5 µM in experiment [1] and 14.2 µM in experiment [2].

Consider `CC(C)(C)n1nnc(CC(=O)N2C[C@H](O)C[C@H]2C(=O)N[C@H](Cc2ccc(-c3ccccc3)cc2)C(N)=O)n1`, for which the results for the Kd in experiment [1] and in experiment [2] were greater than 57.5 µM and 48.6 µM, respectively.

On to `CC(=O)N[C@H](C(=O)N1C[C@H](O)C[C@H]1C(=O)N[C@H](Cc1ccc(I)cc1)C(N)=O)C(C)(C)C`, for which the Kd in experiment [1] worked out at 6.1 µM; in experiment [2] it was 2.6 µM.

For `Cc1cn(CC(=O)N2C[C@H](O)C[C@H]2C(=O)N[C@H](Cc2ccc(-c3ccccc3)cc2)C(N)=O)nn1`, the Kd in experiment [1] is greater than 57.5 µM; in experiment [2], greater than 51.8 µM.

As to `COc1ccc(-c2ccc(C[C@@H](NC(=O)[C@@H]3C[C@@H](O)CN3C(=O)[C@@H](NC(C)=O)C(C)(C)C)C(N)=O)cc2)cc1`, the results for the Kd in experiment [1] and in experiment [2] were greater than 57.5 µM and 30.9 µM, respectively.

On to `CC(=O)N[C@H](C(=O)N1C[C@H](O)C[C@H]1C(=O)N[C@H](Cc1ccc(-c2cccc(Cl)n2)cc1)C(N)=O)C(C)(C)C`, for which the Kd in experiment [1] was greater than 57.5 µM; in experiment [2] it was 4.2 µM.

For `CC(=O)N[C@H](C(=O)N1C[C@H](O)C[C@H]1C(=O)N[C@H](Cc1ccc(-c2ccccc2)cc1)C(N)=O)C1(C)CC1`, the Kd was 15.4 µM in experiment [1] and 3.9 µM in experiment [2].

For `CC(=O)N[C@H](C(=O)N1C[C@H](O)C[C@H]1C(=O)N[C@H](Cc1ccc(-c2ccccc2)cc1)C(N)=O)C12CC3CC(CC(C3)C1)C2`, the Kd turned out to be 0.68 µM in experiment [1] and 0.41 µM in experiment [2].

With `CC(=O)N[C@H](C(=O)N1C[C@H](O)C[C@H]1C(=O)N[C@H](Cc1ccc(-c2ccccc2)cc1)C(N)=O)C1CCOCC1`, the values for the Kd in experiment [1] and in experiment [2] were 17.8 µM and 2.9 µM, respectively.

Regarding `CC(=O)N[C@@H](Cc1ccccc1)C(=O)N1C[C@H](O)C[C@H]1C(=O)N[C@H](Cc1ccc(-c2ccccc2)cc1)C(N)=O`, the Kd in experiment [1] was greater than 57.5 µM; in experiment [2], 18.1 µM.

Consider `CC(=O)N[C@@]1(C(=O)N2C[C@H](O)C[C@H]2C(=O)N[C@H](Cc2ccc(-c3ccccc3)cc2)C(N)=O)CC1(C)C`, for which the Kd in experiment [1] was greater than 57.5 µM; in experiment [2] it was greater than 51.8 µM.

In the case of `CC(=O)N[C@@H](CCCN)C(=O)N1C[C@H](O)C[C@H]1C(=O)N[C@H](Cc1ccc(-c2ccccc2)cc1)C(N)=O`, the Kd in experiment [1] is greater than 57.5 µM; in experiment [2], 17.3 µM.

Regarding `CC(=O)N[C@H](C(=O)N1C[C@H](O)C[C@H]1C(=O)N[C@H](Cc1ccc(C(C)(C)C)cc1)C(N)=O)C(C)(C)C`, the Kd in experiment [1] is greater than 57.5 µM; in experiment [2] it was greater than 51.8 µM.

As for `NC(=O)[C@@H](Cc1ccc(-c2ccccc2)cc1)NC(=O)[C@@H]1C[C@@H](O)CN1C(=O)Cc1cncs1`, the Kd in experiment [1] was greater than 57.5 µM; in experiment [2], greater than 51.8 µM.

As to `Cc1cc(CC(=O)N2C[C@H](O)C[C@H]2C(=O)N[C@H](Cc2ccc(-c3ccccc3)cc2)C(N)=O)on1`, the dissociation constant (Kd) was 46.9 µM in experiment [1] and 24.4 µM in experiment [2].

Turning to `CC(=O)N[C@H](C(=O)N1C[C@H](O)C[C@H]1C(=O)N[C@@H](C(N)=O)c1ccc(-c2scnc2C)cc1)C(C)(C)C`, the Kd in experiment [1] was found to be 1.99 µM; in experiment [2], 0.21 µM.

Take `CC(=O)N[C@H](C(=O)N1C[C@H](O)C[C@H]1C(=O)N[C@H](Cc1ccc(-c2ccccc2)cc1)C(N)=O)C1CCN(C(C)=O)CC1`: the Kd was greater than 57.5 µM in experiment [1] and 2.7 µM in experiment [2].

For `COc1ccccc1-c1ccc(C[C@@H](NC(=O)[C@@H]2C[C@@H](O)CN2C(=O)[C@@H](NC(C)=O)C(C)(C)C)C(N)=O)cc1`, the Kd in experiment [1] amounted to 12.2 µM; in experiment [2], 4.3 µM.

With `Cc1ncc(CC(=O)N2C[C@H](O)C[C@H]2C(=O)N[C@H](Cc2ccc(-c3ccccc3)cc2)C(N)=O)s1`, the Kd in experiment [1] is greater than 57.5 µM; in experiment [2], greater than 51.8 µM.

`NC(=O)[C@@H](Cc1ccc(-c2ccccc2)cc1)NC(=O)[C@@H]1C[C@@H](O)CN1C(=O)Cc1ccoc1`: the Kd in experiment [1] is greater than 57.5 µM; in experiment [2], greater than 51.8 µM.

As to `Cc1noc(CC(=O)N2C[C@H](O)C[C@H]2C(=O)N[C@H](Cc2ccc(-c3ccccc3)cc2)C(N)=O)n1`, the Kd in experiment [1] was greater than 57.5 µM; in experiment [2], greater than 51.8 µM.

With `CC(=O)N[C@H](C(=O)N1C[C@H](O)C[C@H]1C(=O)N[C@H](Cc1ccc(-c2ccccc2)cc1)C(N)=O)C(c1ccccc1)c1ccccc1`, the Kd is greater than 57.5 µM in experiment [1] and 47 µM in experiment [2].

In the case of `CSC[C@H](NC(C)=O)C(=O)N1C[C@H](O)C[C@H]1C(=O)N[C@H](Cc1ccc(-c2ccccc2)cc1)C(N)=O`, the results for the Kd in experiment [1] and in experiment [2] were 46.5 µM and 18.6 µM, respectively.

As for `CC(=O)N[C@H](C(=O)N1C[C@H](O)C[C@H]1C(=O)N[C@H](Cc1ccc(-c2cccnc2)cc1)C(N)=O)C(C)(C)C`, the Kd worked out at 45.2 µM in experiment [1] and 2.7 µM in experiment [2].

On to `CC(=O)N[C@H](C(=O)N1C[C@H](O)C[C@H]1C(=O)N[C@H](Cc1ccc(-c2ccc(F)c(Cl)c2)cc1)C(N)=O)C(C)(C)C`, for which the Kd came out at 11 µM in experiment [1] and 3.5 µM in experiment [2].

Regarding `CC(=O)N[C@H](C(=O)N1C[C@H](O)C[C@H]1C(=O)N[C@H](Cc1ccc(-c2ccc(F)cc2)cc1)C(N)=O)C(C)(C)C`, the Kd is 11.8 µM in experiment [1] and 2.1 µM in experiment [2].

`NC(=O)[C@@H](Cc1ccc(-c2ccccc2)cc1)NC(=O)[C@@H]1C[C@@H](O)CN1C(=O)Cc1ccccn1`: the Kd was greater than 57.5 µM in experiment [1] and greater than 51.8 µM in experiment [2].

In the case of `CC(=O)N1CC[C@H]1C(=O)N1C[C@H](O)C[C@H]1C(=O)N[C@H](Cc1ccc(-c2ccccc2)cc1)C(N)=O`, the results for the Kd in experiment [1] and in experiment [2] were 57.5 µM and 48 µM, respectively.

For `CC(=O)N[C@H](C(=O)N1C[C@H](O)C[C@H]1C(=O)N[C@H](Cc1ccccc1)C(N)=O)C(C)(C)C`, the results for the Kd in experiment [1] and in experiment [2] were greater than 57.5 µM and greater than 51.8 µM, respectively.
